According to the supplement of paper PMC10307832:

Experiments:
Test in all cases: relative viability (nuclei count vs DMSO), 5 days (fraction); higher = more cells survive
Wnt-C59 = compound: CC1=NC=CC(=C1)C2=CC=C(C=C2)CC(=O)NC3=CC=C(C=C3)C4=CN=CC=C4 [Wnt-C59]
Summary of the method: (§1)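 After an overnight hold at 37 °C, lung cancer cell lines in 1536-well plates were pinned with five library-drug doses (not always all listed), each √10 from the next, on vehicle-anchored plates. The cells stayed 5 days without fresh medium, then a one-step fix, permeabilisation and Hoechst stain preceded 4× imaging and MetaXpress nuclear counts. A plate passed only with control CV under 25% and at least one doubling. Viability is the median, over plates, of treated-well nuclei relative to vehicle-well nuclei.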

Lapatinib = compound: CS(=O)(=O)CCNCc1ccc(-c2ccc3ncnc(Nc4ccc(OCc5cccc(F)c5)c(Cl)c4)c3c2)o1 [Lapatinib]
Summary of the method: as §1

Wnt-C59 + Navitoclax = compound: CC1=NC=CC(=C1)C2=CC=C(C=C2)CC(=O)NC3=CC=C(C=C3)C4=CN=CC=C4 [Wnt-C59] + CC1(C)CCC(c2ccc(Cl)cc2)=C(CN2CCN(c3ccc(C(=O)NS(=O)(=O)c4ccc(N[C@H](CCN5CCOCC5)CSc5ccccc5)c(S(=O)(=O)C(F)(F)F)c4)cc3)CC2)C1 [Navitoclax] (partner 0.5 µM)
Summary of the method: (§2)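 Lung cancer cell lines, seeded in 1536-well plates, were treated the following day by pin tool with a single drug or with five library-drug doses (not always all listed) in √10 steps on top of a fixed anchor-drug dose. Cells were fixed and nuclei stained in one step after 5 days, and nuclei were counted. Relative viability is the nuclei count for treated wells divided by that for vehicle wells, reported as medians of duplicate plates.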

Wnt-C59 + Decitabine = compound: CC1=NC=CC(=C1)C2=CC=C(C=C2)CC(=O)NC3=CC=C(C=C3)C4=CN=CC=C4 [Wnt-C59] + Nc1ncn([C@H]2C[C@H](O)[C@@H](CO)O2)c(=O)n1 [Decitabine] (partner 2 µM)
Summary of the method: as §2

| Cell Line | relative viability (Wnt-C59; 0.001 µM) | relative viability (Wnt-C59; 0.01 µM) | relative viability (Wnt-C59; 0.03162 µM) | relative viability (Wnt-C59; 0.1 µM) | relative viability (Lapatinib; 0.02 µM) | relative viability (Lapatinib; 0.06325 µM) | relative viability (Lapatinib; 0.2 µM) | relative viability (Lapatinib; 0.6325 µM) | relative viability (Lapatinib; 2 µM) | relative viability (Lapatinib; 2 µM, anchor plate) | relative viability (Wnt-C59 + Navitoclax; first compound 0.001 µM) | relative viability (Wnt-C59 + Navitoclax; first compound 0.01 µM) | relative viability (Wnt-C59 + Navitoclax; first compound 0.03162 µM) | relative viability (Wnt-C59 + Navitoclax; first compound 0.1 µM) | relative viability (Wnt-C59 + Decitabine; first compound 0.001 µM) | relative viability (Wnt-C59 + Decitabine; first compound 0.01 µM) | relative viability (Wnt-C59 + Decitabine; first compound 0.03162 µM) | relative viability (Wnt-C59 + Decitabine; first compound 0.1 µM) |
| --- | --- | --- | --- | --- | --- | --- | --- | --- | --- | --- | --- | --- | --- | --- | --- | --- | --- | --- |
| NCI-H1755 | 0.994 | 0.969 | 0.999 | 0.914 | 1.01 | 0.914 | 0.936 | 0.967 | 0.981 | 1.03 | 0.983 | 0.977 | 1.01 | 1.02 | 0.696 | 0.728 | 0.725 | 0.691 |
| NCI-H2405 | 1.01 | 0.932 | 0.945 | 0.977 | 0.674 | 0.83 | 0.971 | 1.01 | 0.905 | 1.04 | 0.946 | – | 0.702 | 0.867 | 0.793 | 0.756 | 0.786 | 0.656 |
| NCI-H2170 | 0.997 | 0.879 | 0.939 | 0.975 | 0.953 | 0.913 | 0.762 | 0.72 | 0.332 | 0.276 | 0.608 | 0.35 | 0.595 | 0.527 | 0.47 | 0.516 | 0.506 | 0.474 |
| HARA | 0.952 | 0.874 | 1.19 | 1.02 | 0.52 | 0.749 | 0.943 | 0.93 | 0.755 | 0.77 | 1.18 | 1.17 | 1.17 | 1.13 | 0.604 | 0.455 | 0.543 | 0.587 |
| H3255 | 1.03 | 0.887 | 1.06 | 0.966 | 0.908 | 0.936 | 0.938 | 0.889 | 0.489 | 0.25 | 0.573 | 0.502 | 0.688 | 0.558 | 0.62 | 0.601 | 0.668 | 0.515 |
| NCI-H322M | 0.999 | 0.859 | 0.84 | 0.867 | 0.886 | 0.717 | 0.896 | 0.882 | 0.733 | 0.598 | 1.21 | 1.05 | 0.978 | 0.993 | 0.729 | 0.655 | 0.666 | 0.63 |
| NCI-H1666 | 0.993 | 0.92 | 0.951 | 0.967 | 0.936 | 0.871 | 0.89 | 0.862 | 0.708 | 0.702 | 1.14 | 0.909 | 1.01 | 0.863 | 0.753 | 0.73 | 0.732 | 0.767 |
| HCC-44 | 1.04 | 0.972 | 0.979 | 1.04 | 0.602 | 0.997 | 0.983 | 1.03 | 0.893 | 1.02 | 1.01 | 0.904 | 1.02 | 0.954 | 1.01 | 0.963 | 0.95 | 0.939 |
| HCC-366 | 0.993 | 0.997 | 1.06 | 0.976 | – | 1.02 | 0.981 | 1.02 | 0.99 | 1.02 | 1.06 | 0.926 | 0.932 | 1.01 | 0.317 | 0.427 | 0.342 | 0.387 |
